Source: publication PMC8344021, “Discovery of Small Molecule Bak Activator for Lung Cancer Therapy” (Theranostics, 2021)

Assays:
[1] = test system: A549-P, A549-IRR, H358-P, H358-IRR, H460-P and H460-IRR cells; experiment: Colony formation assay in parental and radioresistant cells; assay type: cell-based, human; details: 0.5 µM
Experimental: To further investigate whether Bak contributes to radioresistance, we established three lung cancer cell lines with ionizing radiation resistance (i.e. A549-IRR, H358-IRR and H460-IRR) as described, [52], [53]. […] A549-P, […] and H460-P cells remained sensitive to IR, but A549-IRR, H358-IRR and H460-IRR became insensitive to IR. […] To further test this in vivo, NSCLC xenografts derived from A549-P and A549-IRR cell lines were treated with IR (2Gy/exposure, every other day for total of 5 times) or BKA-073 (15 mg/kg/d) for 4 weeks. We observed that lung cancer xenografts derived from A549-IRR cells were resistant to IR treatment whereas xenografts derived from A549-P were sensitive to IR treatment (Figure S7C).
Figure S7. BKA-073 overcomes radioresistance of lung cancer in vitro and in vivo. (A) Expression levels of Bak in A549-P versus A549-IRR cells, H358-P versus H358 -IRR cells or H460-P versus H460-IRR cells were analyzed by Western blot. (B) A549-P, A549-IRR, H358-P, H358-IRR, H460-P and H460-IRR cells were treated with IR (5Gy), BKA -073 (0.5 µM), followed by colony formation assay. Data represent the mean ± SD, n = 3 per group. ***P < 0.001, ns: not significant, by 2-tailed t test. […]
Tumor volume was measured once every 2 days. After treatment, mice were sacrificed and tumors were removed and analyzed. […]

human Bak protein (WT) = molecular target: T1, human Bak protein (WT) (Homo sapiens, UniProt Q16611); experiment: Isothermal titration calorimetry (ITC); details: 25 °C, one-site binding
T1 construct: His6; made in house; host or cells: Escherichia coli BL21 DE3
T1 sequence (Q16611 1-186 limits assumed): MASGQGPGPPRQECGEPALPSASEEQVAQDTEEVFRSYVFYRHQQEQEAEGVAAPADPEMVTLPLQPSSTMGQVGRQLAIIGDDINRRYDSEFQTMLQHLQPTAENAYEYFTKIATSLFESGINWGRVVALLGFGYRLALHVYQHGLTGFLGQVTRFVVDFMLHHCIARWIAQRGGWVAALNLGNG
Experimental: The binding affinity of BKA-073 with Bak protein was examined by isothermal titration calorimetry (ITC) assay as described, [28]. ITC assay was carried out in the auto-iTC200 instrument (MicroCal, GE) at 25 °C. Purified recombinant human or mouse Bak protein was loaded into a 96 Deepwell PP plate. BKA-073 compound was then titrated stepwise into the protein for a total of 16 injections. Reference power and initial delay were set as 5 µCal/sec and 60s, respectively. A string speed of 750 rpm was used for the ITC measurements. The binding constant (Kd) value was determined by fitting the titration curve to a one-site binding mode, using the Origin software provided by the manufacturer.
To confirm the binding of BKA-073 with Bak, we first conducted a competitive fluorescence polarization (FP) assay using purified human Bak protein, fluorescent Bak BH3 domain peptide, and BKA-073 as described, [37]-[40]. […] There are multiple amino acid differences in the BH3 domains between Bak and other Bcl2 family members, which helps to explain why BKA-073 only binds to Bak but not to other Bcl2 family members (i.e. Bax, Bcl2, Bcl-XL, Bcl-w and Mcl-1). In addition to the FP assay, isothermal titration calorimetry (ITC) was also employed to measure Bak/BKA-073 binding. […] In addition to human Bak/BKA-073 binding, we measured mouse Bak/BKA-073 binding using ITC.

COc1ccc2nc3ccccc3c(NCCNCC(C)O)c2c1 (stereo not drawn) [BKA-073]
sensitivity (colony formation) ([1]; parental cell lines (A549-P, H358-P, H460-P)): sensitive
sensitivity (colony formation) ([1]; radioresistant cell lines (A549-IRR, H358-IRR, H460-IRR)): sensitive
Kd (human Bak protein (WT)): 88.6 ± 5.73 nM
